Tests used:
[1] = tested on: retinoid induced bone resorption in thyroparathyroidectomised rats; experiment: Inhibition of retinoid induced bone resorption in thyroparathyroidectomised rats in vivo; set-up: species or system rat; conditions: 150 μmole/kg
Procedure: (§1) The parathyroid hormone stimulated bone resorption inhibition activity of the compounds in vitro in mouse calvaria, as well as the inhibition of retinoid induced bone resorption in thyroparathyroidectomised rats in vivo were determined (Reynolds & Dingle (Calc Tiss Res 1970; 4:339, and Trechsel et al. (J Clin Invest 1987; 80:1679)).

[2] = tested on: parathyroid hormone stimulated bone resorption in mouse calvaria; experiment: Parathyroid hormone stimulated bone resorption inhibition in vitro in mouse calvaria; format: cell-based; conditions: 100 μm
Procedure: as §1

Row | SMILES | Inhibition of resorption (%), in vivo [1] [%] | Inhibition of resorption (%), in vitro [2] [%]
1 | O=P(O)(O)C(Cl)(Cl)P(=O)(O)O [Clodronate, reference compound] | 64 | –
2 | CCOP(=O)(O)C(Nc1ccccn1)P(=O)(O)OCC (stereo not shown) [[[(2-Pyridinyl)amino]methylidene]bisphosphonic acid P,P'-diethyl ester] | 65 | 33
3 | CC(C)OP(=O)(O)C(Sc1ccccn1)P(=O)(O)O (stereo not shown) [[[(2-Pyridinyl)thio]methylidene]bisphosphonic Acid Monoisopropyl Ester] | 87 | 50
4 | O=P(O)(O)C(Nc1ccccn1)P(=O)(O)O [[[(2-pyridinyl)amino]methylidene]bisphosphonate, reference compound] | > 100 | 56
5 | CCOP(=O)(O)C(Nc1ncccc1C)P(=O)(O)OCC (stereo not shown) [[[(3-Methyl-2-pyridinyl)amino]methylidene) Bisphosphonic Acid P,P'-diethyl Ester] | 66 | 43
6 | Cc1cccnc1NC(P(=O)(O)O)P(=O)(O)O [[[(3-methyl 2-pyridinyl)amino]methylidene]bisphosphonate, reference compound] | – | 51

Source: patent US5393748A, “Methylenebisphosphonic acid derivatives” (priority 1990, dated 1995)
